Measured values as given in patent US20120046329A1, “MODULATORS OF NOD1 AND NOD2 SIGNALING, METHODS OF IDENTIFYING MODULATORS OF NOD1 AND NOD2 SIGNALING, AND USES THEREOF” (Sanford-Burnham Medical Research Institute, priority 2010, published 2012).
Like-named read-outs stand apart in the source and are kept apart here.

T1: NOD1 (Homo sapiens, UniProt Q9Y239)
T1 sequence (Q9Y239 1-953): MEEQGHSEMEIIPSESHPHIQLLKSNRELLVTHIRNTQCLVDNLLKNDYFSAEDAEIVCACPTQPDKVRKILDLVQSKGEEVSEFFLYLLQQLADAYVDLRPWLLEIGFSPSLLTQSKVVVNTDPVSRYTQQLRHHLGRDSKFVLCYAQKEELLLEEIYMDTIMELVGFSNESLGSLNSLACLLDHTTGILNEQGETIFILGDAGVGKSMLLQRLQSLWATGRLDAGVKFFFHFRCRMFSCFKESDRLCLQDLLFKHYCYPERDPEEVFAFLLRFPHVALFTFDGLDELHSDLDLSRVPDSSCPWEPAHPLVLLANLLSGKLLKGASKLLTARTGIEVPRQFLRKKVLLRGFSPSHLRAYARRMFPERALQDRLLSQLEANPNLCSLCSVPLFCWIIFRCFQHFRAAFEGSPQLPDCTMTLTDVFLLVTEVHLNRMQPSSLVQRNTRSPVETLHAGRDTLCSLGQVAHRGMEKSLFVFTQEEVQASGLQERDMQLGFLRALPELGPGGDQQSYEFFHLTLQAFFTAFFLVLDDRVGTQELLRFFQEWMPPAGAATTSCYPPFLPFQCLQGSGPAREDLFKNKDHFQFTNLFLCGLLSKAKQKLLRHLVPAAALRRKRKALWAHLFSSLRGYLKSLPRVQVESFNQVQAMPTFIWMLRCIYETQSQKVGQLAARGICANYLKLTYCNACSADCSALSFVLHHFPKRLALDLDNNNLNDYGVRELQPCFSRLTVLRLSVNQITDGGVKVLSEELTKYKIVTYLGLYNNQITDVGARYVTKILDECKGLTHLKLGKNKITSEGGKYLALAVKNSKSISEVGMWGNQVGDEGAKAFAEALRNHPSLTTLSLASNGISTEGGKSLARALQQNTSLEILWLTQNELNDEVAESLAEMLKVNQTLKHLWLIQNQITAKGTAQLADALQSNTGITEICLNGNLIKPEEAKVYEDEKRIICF


Assays:
TNF-α induced NF-κB = test: TNF-α-induced NF-κB luciferase reporter counterscreen, HEK293T; format: cell-based, human; conditions: Homo sapiens, HEK-293T
NOD1 = biological target: T1, NOD1; test: NOD1 NF-κB luciferase reporter assay, γ-tri-DAP-stimulated HEK293T cells; conditions: for Effect on NOD-driven NF-κB reporter gene activity: data not shown
NOD2 = NOD2 (Homo sapiens, UniProt Q9HC29); test: NOD2 NF-κB luciferase reporter assay, HEK293T cells over-expressing NOD2; format: cell-based; design: expressed in transfected cells; host or cells: HEK293T NF-κB-luciferase cells, lentiviral transduction, sorted by EGFP
XIAP/RIP2 interaction = biological target: T2, XIAP/RIP2 interaction (Homo sapiens, UniProt P98170); test: GST-XIAP pull-down of FLAG-RIP2 in vitro; format: binding
T2 construct: made in house; FLAG-RIP2: transfected HEK293T lysate
Protocol: (A) Schematic representation of GFP-XIAP mutants. (B) Transfected HEK293T cells expressing FLAG-RIP2 together with GFP-XIAPWT, GFPXIAPE219R, GFP-XIAPH223V, GFP-XIAPE219R/H223V or GFP-control were lysed and subjected to immunoprecipitation using anti-FLAG antibody. Immunoprecipitates were analyzed by SDS/PAGE/immunoblotting using anti-FLAG and anti-GFP antibodies. Protein binding was quantified by densitometry analysis, measuring the integrated density value expressed as arbitrary units of the GFP-XIAP bands. Values are expressed as mean±SD of three independent experiments. […] Beads were analyzed by immunoblotting using anti-FLAG-HRP, anti-XIAP/anti-GST or anti-SMAC antibodies as indicated. An aliquot of lysates was also directly analyzed by immunoblotting (“input”).
In another set of experiments, for immunoprecipitation (IP), cells were lysed in IP buffer [20 mM iris pH 7.5, 135 mM NaCl, 1 mM EDTA or 1 mM EGTA (for binding assays involving NODS), 0.5% Nonidet P-40, 10% glycerol, 10 mM NaF, 1 mM DTT, 2 mM Na3VO4, 20 μM leupeptin, 1 mM PMSF, 20 mM N-ethylmaleimide, 0.5 μM iodoacetic acid, 1× protease inhibitor mix (Roche Applied Science)]. […] After incubation overnight bound immune complexes were washed four times in IP buffer, boiled in 2× Laemmli buffer and analyzed by SDS/PAGE and immunoblotted using various antibodies as specifically indicated. […]

[1] = TNF-α-stimulated NF-κB luciferase, HEK293T, read-out: TNF-α IC50

Chain of NOD2 (Q9HC29 whole entry): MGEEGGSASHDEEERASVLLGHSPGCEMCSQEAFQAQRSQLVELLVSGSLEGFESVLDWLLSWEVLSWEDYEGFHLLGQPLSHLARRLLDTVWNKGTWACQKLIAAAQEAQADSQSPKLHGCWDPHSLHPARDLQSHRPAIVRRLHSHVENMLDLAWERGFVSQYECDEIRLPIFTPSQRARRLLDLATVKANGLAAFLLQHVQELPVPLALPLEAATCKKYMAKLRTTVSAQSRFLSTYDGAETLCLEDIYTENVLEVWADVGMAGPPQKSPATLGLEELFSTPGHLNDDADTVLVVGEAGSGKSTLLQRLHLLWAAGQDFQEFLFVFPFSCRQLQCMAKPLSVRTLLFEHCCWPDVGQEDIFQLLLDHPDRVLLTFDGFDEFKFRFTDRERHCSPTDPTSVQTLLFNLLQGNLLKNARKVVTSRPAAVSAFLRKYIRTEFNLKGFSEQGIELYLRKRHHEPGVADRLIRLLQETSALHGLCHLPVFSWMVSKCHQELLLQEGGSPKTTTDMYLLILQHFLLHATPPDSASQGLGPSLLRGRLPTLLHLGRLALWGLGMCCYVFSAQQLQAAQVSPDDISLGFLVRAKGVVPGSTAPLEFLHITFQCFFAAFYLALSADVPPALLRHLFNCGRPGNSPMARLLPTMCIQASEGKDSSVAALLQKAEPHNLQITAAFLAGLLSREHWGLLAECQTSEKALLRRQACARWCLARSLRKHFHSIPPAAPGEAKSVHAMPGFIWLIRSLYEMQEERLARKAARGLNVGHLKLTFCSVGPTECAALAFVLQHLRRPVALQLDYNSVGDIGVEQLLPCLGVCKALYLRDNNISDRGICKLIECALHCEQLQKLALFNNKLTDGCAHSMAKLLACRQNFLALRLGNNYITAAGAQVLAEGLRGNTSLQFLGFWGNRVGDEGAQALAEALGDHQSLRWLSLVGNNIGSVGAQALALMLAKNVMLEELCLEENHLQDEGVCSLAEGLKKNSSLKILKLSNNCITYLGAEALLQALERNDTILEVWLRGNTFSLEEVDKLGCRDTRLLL
T2 sequence (P98170 whole entry): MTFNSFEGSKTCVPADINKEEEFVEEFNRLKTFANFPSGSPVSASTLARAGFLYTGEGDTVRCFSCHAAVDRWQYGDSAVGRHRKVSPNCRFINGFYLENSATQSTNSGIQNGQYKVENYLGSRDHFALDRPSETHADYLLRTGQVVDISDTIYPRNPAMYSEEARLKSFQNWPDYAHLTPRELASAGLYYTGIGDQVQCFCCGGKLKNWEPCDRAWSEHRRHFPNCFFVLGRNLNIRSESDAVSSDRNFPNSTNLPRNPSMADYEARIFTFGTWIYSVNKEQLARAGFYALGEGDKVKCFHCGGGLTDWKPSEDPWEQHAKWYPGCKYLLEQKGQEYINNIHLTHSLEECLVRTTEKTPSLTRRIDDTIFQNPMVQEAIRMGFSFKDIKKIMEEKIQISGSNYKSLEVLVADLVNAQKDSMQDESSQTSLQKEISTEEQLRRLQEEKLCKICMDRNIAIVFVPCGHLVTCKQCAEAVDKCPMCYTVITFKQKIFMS

Molecule | IC50 (NOD1) | IC50 (NOD2) | IC50 (TNF-α induced NF-κB; [1]) | further results
C=CCNC1=C2C[C@@H](C)C[C@H](OC)[C@H](O)[C@@H](C)/C=C(\C)[C@H](OC(N)=O)[C@@H](OC)C=C/C=C(\C)C(=O)NC(=CC1=O)C2=O [Compound 17-AGG, reference compound] | – | – | – | Effect on NOD-driven NF-κB reporter gene activity (NOD1): suppress
COc1ccc2c(c1)nc(N)n2S(=O)(=O)c1ccc(C)cc1 [Compound 24] | 1.9 µM | 3.1 µM | > 25 µM | –
CC(C)c1ccc(S(=O)(=O)n2c(N)nc3ccccc32)cc1 [Compound 12] | – | > 20 µM | > 20 µM | –
Nc1nc2ccccc2n1S(=O)(=O)c1ccc(OC(F)(F)F)cc1 [Compound 11] | – | > 20 µM | > 20 µM | –
Cc1ccc(S(=O)(=O)n2c(N)nc3ccc(C(F)(F)F)cc32)cc1 [Compound 21] | 3.9 µM | 10 µM | 12.3 µM | –
C[n+]1cc2c3c(ccc2c2ccc4cc5c(cc4c21)OCO5)OCO3 [sanguinarine, reference compound] | – | – | – | inhibition at 4 µM (NOD1; HEK-293T, read-out: Luciferase inhibition, hit cut-off): ≥ 50%
Cc1ccc(S(=O)(=O)n2c(N)nc3cc(C(F)(F)F)ccc32)cc1 [Compound 20] | 1.6 µM | 4.7 µM | 2.3 µM | –
Nc1nc2ccccc2n1S(=O)(=O)c1ccc([N+](=O)[O-])cc1 [Compound 5] | – | – | – | IC50 (TNF-α induced NF-κB; read-out: TNF-α IC50(μM)): > 20 µM
Nc1nc2ccccc2n1S(=O)(=O)c1cccc(Br)c1 [Compound 31] | 3.5 µM | – | – | IC50 (TNF-α induced NF-κB; read-out: TNF-α IC50(μM)): > 100 µM
Nc1nc2ccccc2n1S(=O)(=O)c1ccc(Cl)c(Cl)c1 [Compound 14] | – | > 20 µM | > 20 µM | –
Nc1nc2ccccc2n1S(=O)(=O)c1ccc2c(c1)CCC2 [Compound 17] | 0.8 µM | 0.6 µM | > 25 µM | –
Nc1nc2ccccc2n1S(=O)(=O)c1ccccc1 [Compound 4] | – | – | – | IC50 (TNF-α induced NF-κB; read-out: TNF-α IC50(μM)): > 20 µM
Nc1nc2ccccc2n1S(=O)(=O)c1cccs1 [Compound 16] | 11 µM | > 25 µM | 6.6 µM | –
Cc1ccc(S(=O)(=O)n2c(N)nc3cc(C)ccc32)cc1 [Compound 18] | 9.3 µM | 15 µM | > 25 µM | –
COc1ccc(-c2ccc(S(=O)(=O)n3c(N)nc4ccccc43)cc2)cc1 [Compound 40] | – | – | 5.2 µM | –
Cc1ccc(S(=O)(=O)n2cnc3ccccc32)cc1 [Compound 6] | – | – | – | IC50 (TNF-α induced NF-κB; read-out: TNF-α IC50(μM)): > 20 µM
Cc1ccc(S(=O)(=O)n2c(N)nc3ccc(F)cc32)cc1 [Compound 23] | 6.2 µM | > 25 µM | > 25 µM | –
Nc1nc2ccccc2n1S(=O)(=O)c1ccc(F)cc1 [Compound 13] | – | > 20 µM | > 20 µM | –
Cc1ccc(S(=O)(=O)n2c(N)nc3cc(F)ccc32)cc1 [Compound 22] | 1.8 µM | > 25 µM | > 25 µM | –
COC1=C2C[C@@H](C)C[C@H](OC)[C@H](O)[C@@H](C)/C=C(\C)[C@H](OC(N)=O)[C@@H](OC)/C=C\C=C(/C)C(=O)NC(=CC1=O)C2=O [geldanomycin, reference compound] | – | – | – | Effect on NOD-driven NF-κB reporter gene activity (NOD1): suppress
SMAC protein: recombinant SMAC protein, dimeric, binds BIR2 and BIR3 domains of XIAP (protein, UniProt Q9NR28 22-239, looked up, His6 tag) Diablo IAP-binding …: LCVPVVANFKKRCFSELIRPWHKTVTIGFGVTLCAVPIAQKSEPHSLSSEALMRRAVSLVTDSTSTFLSQTTYALIEAITEYTKAVYTLTSLYRQYTSLLGKMNSEEEDEVWQVIIGARAEMTSKHQEYLKLETTWMTAVGLSEMAAEAAYQTGADQASITARNHIQLVKLQVEEVHQLSRKAETKLAEAQIEELRQKTQEEGEERAESEQEAYLRED | – | – | – | Effect on XIAP/RIP2 interaction in vitro (XIAP/RIP2 interaction): concentration-dependent inhibition

Further lines, with some results ahead:

IC50 (NOD1) | IC50 (NOD2) | Molecule | IC50 (TNF-α induced NF-κB; [1]) | further results
3.3 µM | – | CC(C)(C)c1cccc(S(=O)(=O)n2c(N)nc3ccccc32)c1 [Compound 35] | 15.6 µM | –
1.5 µM | – | Nc1nc2ccccc2n1S(=O)(=O)c1ccc(-c2ccccc2)cc1 [Compound 39] | – | IC50 (TNF-α induced NF-κB; read-out: TNF-α IC50(μM)): 4.2 µM
10.9 µM | 15.6 µM | Cc1ccc(S(=O)(=O)n2c(CNC=O)nc3ccccc32)cc1 [Compound 27] | 8.4 µM | –
2.2 µM | – | Nc1nc2ccccc2n1S(=O)(=O)c1cc(Cl)c(Cl)s1 [Compound 37] | 18.4 µM | –
12.4 µM | – | Nc1nc2ccccc2n1S(=O)(=O)c1cccc(C(F)(F)F)c1 [Compound 32] | > 100 µM | –
> 25 µM | – | Nc1nc2ccccc2n1S(=O)(=O)c1cccc(OC(F)(F)F)c1 [Compound 33] | > 100 µM | –
17.5 µM | 12.8 µM | Cc1ccc(S(=O)(=O)n2c(N)nc3c(N)cccc32)cc1 [Compound 26] | > 25 µM | –
3 µM | 7.6 µM | CCOC(=O)c1ccc2nc(N)n(S(=O)(=O)c3ccc(C)cc3)c2c1 [Compound 25] | > 25 µM | –
12.1 µM | > 25 µM | Cc1ccc(S(=O)(=O)n2c(NCCCO)nc3ccccc32)cc1 [Compound 28] | > 25 µM | –
14.5 µM | – | COc1cccc(S(=O)(=O)n2c(N)nc3ccccc32)c1 [Compound 36] | > 100 µM | –
1.3 µM | – | CCCc1cccc(S(=O)(=O)n2c(N)nc3ccccc32)c1 [Compound 34] | > 100 µM | –
3.8 µM | – | Cc1cccc(S(=O)(=O)n2c(N)nc3ccccc32)c1 [Compound 29] | > 100 µM | –
